Reference: paper PMC9229798, “Antioxidant Activity and Cytotoxicity of Aromatic Oligosulfides” (Molecules, 2022)
Where “and” joins values, the source holds several entries; their conditions need not be identical. Equal entries are not always repeated. Where two headings read alike, the source gives them in different places.

Legend:
[1] = CUPRAC assay (cupric reducing antioxidant capacity); conditions: Trolox equivalents; compound 0.5 mM, 30 min
Procedure: Antioxidant activity can be evaluated by the CUPRAC test (cupric reducing antioxidant capacity) based on the ability of the compound to reduce Cu^2+ in complex with 2,9-dimethyl-1,10-phenanthroline (neocuproin). The antioxidant capacity of compounds 1–6 in the CUPRAC test was measured in equivalents of the water-soluble analogue of vitamin E—Trolox (TEACCUPRAC) (Table 2). […] The TEACCUPRAC values of disulfides 4 and 6 were quite close and indicated the manifestation of antioxidant activity mainly due to the presence of HO-groups. The slightly lower activity of compound 4 was explained by the absence of tert-butyl groups in its structure.
Neocuproine (2,9-dimethyl-1,10-phenanthroline) and Trolox were used with no further purification. The method proposed by Apak et al. was used with slight modification. For these measurements, 0.05 mL of CuCl2 solution (0.01 M), 0.05 mL of MeOH neocuproine solution (7.5 mM) and 0.05 mL of ammonium acetate buffer solution (1 M) were added to a test tube, followed by mixing with the 0.05 mL tested compounds (0.5 mM). The mixtures were kept at room temperature for 30 min. Absorbance was measured at 450 nm against a reagent blank. The results were presented in Trolox equivalents (Trolox equivalent antioxidant capacity, TEAC) obtained using absorbance data, and the linear calibration curve was plotted as absorbance vs. Trolox concentration.

[2] = Antiradical activity, quinoid oxidation (autoxidation) of adrenaline; conditions: adrenaline autoxidation in alkaline buffer, compound initial 25 µM
[3] = FRAP assay (ferric reducing antioxidant power); conditions: Trolox equivalents
Procedure: The assessment of antioxidant activity was also carried out by the FRAP (Ferric Reduction Aantioxidant Power) method based on electron transfer similar to the CUPRAC method, while in the DPPH test, the reaction proceeded according to the HAT mechanism. Antioxidant activity of compounds 1–6 was also calculated in Trolox equivalents (TEACFRAP). […] The lowest activity was obtained for trisulfide 1 and disulfide 5, which are characterized by the absence of functional groups in the benzene ring. The TEACFRAP values for disulfide 2 with a methoxy group and compounds 4 and 6 with a phenolic fragment differed insignificantly and amounted to 0.58 and 0.69 Trolox equivalents.
The sample solution (0.1 mL) was mixed with 0.1 mL phosphate buffer (0.2 M, pH 6.6) and 0.1 mL potassium ferricyanide (1%). For each test compound different concentrations in EtOH were used (5, 10, 25, 50, 100, 200 and 250 μM). The resulting mixture was incubated at 50 °C for 20 min. After the incubation period, 0.1 mL trichloroacetic acid (10%), 0.5 mL deionized water, and 0.1 mL ferric chloride (0.1%) were added to the mixture. The sample absorbance was read at 700 nm with a 96-cell microplate spectrophotometer. The reduction of Fe (III) to Fe (II) could be expressed as % inhibition or equivalent of a standard compound (e.g., Trolox).

[4] = test system: A-549; assay: Annexin V/Dead Cell assay; type: cell-based, human; conditions: A-549, 2 × IC50, 48 h
Source text: Apoptosis or programmed cell death is an important and active regulatory pathway of cell growth and proliferation. Cells respond to specific induction signals by initiating intracellular processes that result in characteristic physiological changes. Among these are externalization of phosphatidylserine (PS) to the cell surface, cleavage and degradation of specific cellular proteins, compaction and fragmentation of nuclear chromatin, and loss of membrane integrity. Phosphatidylserine (PS) is normally located in the inner part of the cell membrane. In the initial stage of apoptosis, the PS residues which translocated to the extracellular are detected by Annexin V, which is a calcium-dependent phospholipid-binding protein with a high affinity for PS. Annexin V flow cytometric assay was used to evaluate the compounds’ ability to induce apoptosis and influence on cell death. HCT-116 colon carcinoma and A-549 lung adenocarcinoma cells were treated by disulfides 2 and 3.
HCT-116 (colon carcinoma) and A-549 (lung carcinoma) cells (1 × 10^6) were seeded in a six-well plate and were incubated for 24 h. […] After incubation, the cells were harvested by trypsinization, precipitated by centrifugation (3000 rpm), washed with PBS, recentrifuged, and the buffer was removed. DMEM was added to achieve a cell concentration of 400–1000 cells/µL. The Muse Annexin V & Dead Cell Kit reagent (100 µL) was added to the cells and […] for 20 min at room temperature in the dark. The results were recorded on a Muse Cell Analyzer flow cytometer (Merck, Rahway, NJ, USA).

[5] = set-up: method as in doi:10.3906/kim-1904-40; conditions: PASS, cited from earlier work
[6] = set-up: method as in doi:10.3906/kim-1904-40; conditions: Trolox equivalents; cited from earlier work
[7] = test system: MCF-7; set-up: method as in doi:10.3906/kim-1904-40; conditions: CLC-Pred, cited from earlier work; for Cytotoxicity MCF-7, Pi: probability of lack of activity; for Cytotoxicity MCF-7, Pa: probability of presence of activity
[8] = set-up: method as in doi:10.1016/j.arabjc.2021.103068; conditions: all stages of LPO; cited from earlier work
[9] = set-up: method as in doi:10.1016/j.arabjc.2021.103068; conditions: oleic acid, 1 mmol/L additive, 65 °C; cited from earlier work
[10] = ferrozine–Fe2+ complex formation; cited from earlier work
[11] = set-up: method as in doi:10.3906/kim-1904-40; conditions: adrenaline autoxidation in alkaline buffer; cited from earlier work
[12] = test system: SOD; set-up: method as in doi:10.3906/kim-1904-40; conditions: adrenaline oxidation with biopreparation; cited from earlier work
[13] = set-up: method as in doi:10.1016/j.arabjc.2021.103068; conditions: 1 mmol/L additive, 65 °C; cited from earlier work
[14] = probability of lack of activity
[15] = probability of presence of activity

SMILES	TEAC CUPRAC [1]	Antiradical Activity, % Inhibition [2]	TEAC FRAP [3]	Early Apop. [4]	total apoptotic cells [4]	Antidote, Pi [5, 14]	Free radical scavenger, Pi [5, 14]	Nitric oxide scavenger, Pi [5, 14]	Oxygen scavenger, Pi [5, 14]	Antidote, Pa [5, 15]	Free radical scavenger, Pa [5, 15]	Nitric oxide scavenger, Pa [5, 15]	Oxygen scavenger, Pa [5, 15]	TEAC CUPRAC [6]	Cytotoxicity MCF-7, Pi [7]	Cytotoxicity MCF-7, Pa [7]	anti-/prooxidant effect in liver LPO [8]	TBARS, % Inhibition [9]	FIC, % of Inhibition [10]	Antiradical Activity, % Inhibition [11]	further results
c1ccc(SSSc2ccccc2)cc1 [Compound 1, diphenyl trisulfide]	non active	30 ± 1.9%	0.06 ± 0.01																		
COc1ccccc1SSc1ccccc1OC [Compound 2, bis(2-methoxyphenyl) disulfide]	non active	50 ± 3.1%	0.58 and 0.58 ± 0.05	24.0%	25.2%																
COc1ccc(SSc2ccc(OC)c(OC)c2)cc1OC [Compound 3, bis(3,4-dimethoxyphenyl) disulfide]	0.06 ± 0.01			38.2%	42.6%																
Oc1ccc(SSc2ccc(O)cc2)cc1 [Compound 4, 4,4′-dihydroxydiphenyl disulfide]	1.8 and 1.80 ± 0.06	36 ± 2.3%	0.69 and 0.69 ± 0.07																		
c1ccc(SSc2ccccc2)cc1 [Compound 5, diphenyl disulfide]			0.06 ± 0.05			0.078	0.056	0.013	0.018	0.228	0.230	0.274	0.621	0.10 ± 0.01	0.005	0.882	prolonged prooxidant activity	24.6 ± 0.29 %	73.7 ± 2.1 %	56 ± 2.9 %	SOD Activity of Liver Sturgeon, % Inhibition [12]: 61 ± 4.8 %; LOOH, k0/k1 (relative rate constant of LOOH formation) [13]: 0.79 ± 0.11
CC(C)(C)c1cc(SSc2cc(C(C)(C)C)c(O)c(C(C)(C)C)c2)cc(C(C)(C)C)c1O [Compound 6, bis(3,5-di-tert-butyl-4-hydroxyphenyl) disulfide]			0.69 and 0.69 ± 0.02			0.027	0.012	0.012	0.044	0.317	0.473	0.278	0.519	2.04 ± 0.05	0.082	0.403	pronounced antioxidant effect	73.1 ± 1.30 %	28.9 ± 1.3 %	37 ± 4.8 %	Antioxidant, Pi [5, 14]: 0.005; Antioxidant, Pa [5, 15]: 0.549; SOD Activity of Liver Sturgeon, % Inhibition [12]: 85 ± 3.0 %; LOOH, k0/k1 (relative rate constant of LOOH formation) [13]: 0.49 ± 0.05
